Source: patent publication US8486962B2, “Antifungal agents” (F2G Ltd., priority 2005, dated 2013)
In brackets after ≈: the same amount, converted by molar mass. Where two headings read alike, the source gives them in different places.

Legend:
Aspergillus flavus = assay: MIC, YAG medium, Aspergillus flavus; format: cell-based; conditions: YAG medium; for MIC: Aspergillus flavus
Summary of the method: (§1)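 Yeast: RPMI + 2% glucose + 0.135M MOPS pH7.0, 1-2×10^3 cfu/ml, 35° C 24-48 h, OD485, MIC at >80% inhib. Aspergillus: YAG (1% glucose, 1% NH4Cl, 0.5% yeast extract), spores 1-2×10^4 cfu/ml, 35° C 24 h, MIC at >70% inhib. Range 50-0.05 mg/L.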

[1] = tested on: Aspergillus fumigatus AF210; assay: MIC, YAG medium, Aspergillus fumigatus AF210; format: cell-based; conditions: YAG medium; for MIC: Aspergillus fumigatus, AF210, read-out: MIC A Fum. 210
Summary of the method: as §1

A Terreus 49 = assay: MIC, YAG medium, A Terreus 49; format: cell-based, Aspergillus terreus; conditions: YAG medium; for MIC: Aspergillus terreus, read-out: MIC A Terreus 49
Procedure: Measurement of Minimum Inhibitory Concentrations (MICs)
Between 1 and 5 mgs of compound were accurately weighed out into a sterile Eppendorf tube. The compound was dissolved in DMSO to give a solution containing 5 mg/ml. Tubes were stored at −20° C. until required.
On the day of testing thawed solutions were vortex mixed to ensure homogeneity. 30 μl of solution was removed and added to 570 μl of sterile water in a separate sterile Eppendorf. The thoroughly mixed solution was used to prepare a series of doubling dilutions in water, in a deep well plate. Eleven replicate plates were prepared using a Minitrak by aspirating 20 μl from each well into eleven clear polystyrene 96 well plates.
Spores of Aspergillus spp (Aspergillus fumigatus, Aspergillus terreus, Aspergillus niger and Aspergillus flavus) were harvested from cultures grown on Sabarauds agar for 5 days, and resuspended in PBS/Tween 80 to approx 1×10^7 cfu/ml Other filamentous fungi (Fusarium solani, Scedosporium spp., Trichophyton spp., Absidia corymbifera), were grown on Sabarauds agar for 2-10 days and spores/hyphae resuspended in PBS/Tween to give approx 1×10^7 cfU/ml. Candida species (Candida albicans, Candida glabrata, Candida krusei, Candida parapsilosis and Candida tropicalis) were grown on Sabarauds agar, cells were harvested from the agar using a sterile loop and resuspended in PBS/Tween 80 to approx 1×10^6 cfu/ml. Each organism suspension was diluted in RPMI medium, containing 2% glucose and 0.135M MOPS buffer (pH7.0) to 2×10^4 cfu/ml for Aspergillus spp and other filamentous fungi and 2×10^3 cfu/ml for yeast. 80 μl of an organism suspension was added to each well of the plate containing drug dilutions.
This produced MIC plates with a drug range 50-0.05 mg/L and organism inocula of 1-2×10^4 cfu/ml for Aspergillus spp and other filamentous fungi and 1-2×10^3 cfu/ml for yeasts. All plates were incubated for 24-48 hrs at 35° C. Growth was assessed by monitoring the optical density at 485 nm for each well. The MIC of a compound is the lowest drug concentration that inhibits growth of an organism by >80% compared with a drug free control. MICs are recorded as mg/L. Other growth media can be used for susceptibility testing, and the activity of the described compounds can also be assessed in a medium comprising, 1% glucose, 1% ammonium chloride and 0.5% yeast extract (YAG medium). To perform MIC tests in this medium, dilutions of compounds are prepared in microtitre plates as described above. Fungal strains to be tested are grown and harvested in an identical manner to that described above, each organism suspension is then diluted in YAG medium to 2×10^4 cfu/ml for Aspergillus spp and other filamentous fungi and 2×10^3 cfu/ml for yeast. 80 μl of an organism suspension was added to each well of the plate containing drug dilutions. This produced MIC plates with a drug range 50-0.05 mg/L and organism inocula of 1-2×10^4 cfu/ml for Aspergillus spp and other filamentous fungi and 1-2×10^3 cfu/ml for yeasts. All plates were incubated for 24 hrs at 35° C. Growth was assessed by monitoring the optical density at 485 nm for each well. The MIC of a compound is the lowest drug concentration that inhibits growth of an organism by >70% compared with a drug free control. MICs are recorded as mg/L. In cases where the MIC of an organism is […]0.05 mg/L the MIC is repeated using a concentration range of 0.5-0.0005 mg/L. MIC tests in YAG medium have more clear-cut endpoints and have slightly lower MICS than those performed in RPMI medium.
The following organisms were tested: Aspergillus fumigatus AF293 and Aspergillus fumigatus AF210, Aspergillus niger, Aspergillus terreus, Aspergillus favus, Candida albicans, Candida krusei, Candida tropicalis, Candida glabrata, Candida parapsilosis, Trichophyton rubrum, Trichophyton mentagrophytes, Scedosporium prolificans, Scedosporium apiospermum, Absidia corymbifera, Fusarium solani.

[2] = tested on: Aspergillus fumigatus AF293; assay: MIC, YAG medium, Aspergillus fumigatus AF293; format: cell-based; conditions: YAG medium; for MIC: Aspergillus fumigatus, AF293, read-out: MIC A Fum. 293
Summary of the method: as §1

Aspergillus niger = assay: MIC, YAG medium, Aspergillus niger; format: cell-based; conditions: YAG medium; for MIC: Aspergillus niger
Summary of the method: as §1

Aspergillus terreus = assay: MIC, YAG medium, Aspergillus terreus; format: cell-based; conditions: YAG medium; for MIC: Aspergillus terreus
Summary of the method: as §1

| Structure (SMILES) | MIC (Aspergillus flavus; read-out: MIC A Flavus 01) [µg/mL] | MIC [1] [µg/mL] | MIC (A Terreus 49) [µg/mL] | MIC [2] [µg/mL] | MIC (Aspergillus niger; read-out: MIC A Niger 1) [µg/mL] | MIC (Aspergillus terreus; read-out: MIC A Terreus 4) [µg/mL] | MIC A Flavus 01 (Aspergillus flavus) [µg/mL] | MIC A Fum. 210 [1] [µg/mL] | MIC A Terreus 49 (A Terreus 49) [µg/mL] | MIC A Fum. 293 [2] [µg/mL] | MIC A Niger 1 (Aspergillus niger) [µg/mL] | MIC A Terreus 4 (Aspergillus terreus) [µg/mL] | MIC (Aspergillus flavus; read-out: MIC A Flavus) [µg/mL] | MIC (Aspergillus niger; read-out: MIC A Niger) [µg/mL] | MIC (Aspergillus terreus; read-out: MIC A Terreus) [µg/mL] |
| --- | --- | --- | --- | --- | --- | --- | --- | --- | --- | --- | --- | --- | --- | --- | --- |
| Cc1ccc(NC(=O)C(=O)c2c(-c3cccnc3)cc3ccccn23)cc1 [Example 173, 2-Oxo-2-(2-pyridin-3-yl-indolizin-3-yl)-N-p-tolyl-acetamide] | 0.12 (≈ 0.338 µM) | 0.4 (≈ 1.13 µM) | 0.12 (≈ 0.338 µM) | 0.5 (≈ 1.41 µM) | 0.5 (≈ 1.41 µM) | 0.12 (≈ 0.338 µM) |  |  |  |  |  |  |  |  |  |
| CN1CCN(c2ccc(NC(=O)C(=O)c3c(-c4ccccc4)cc4ccccn34)cc2)CC1 [Example 262, N-[4-(4-Methyl-piperazin-1-yl)-phenyl]-2-oxo-2-(2-phenyl-indolizin-3-yl)-acetamide] | 1.6 (≈ 3.65 µM) | 1.6 (≈ 3.65 µM) | 1.6 (≈ 3.65 µM) | 1.6 (≈ 3.65 µM) | 6.25 (≈ 14.3 µM) | 1.6 (≈ 3.65 µM) |  |  |  |  |  |  |  |  |  |
| CON=C(C)c1ccc(NC(=O)C(=O)c2c(-c3ccccc3)cc3ccccn23)cc1 (mixture of isomers) [Example 243, N-(4-{1-[(E/Z)-Methoxyimino]-ethyl}-phenyl)-2-oxo-2-(2-phenyl-indolizin-3-yl)-acetamide] |  |  |  |  |  |  | 0.015 | 0.12 | 0.004 | 0.062 | 0.015 | 0.008 |  |  |  |
| O=C(Nc1ccc(N2CCCCC2)cc1)C(=O)c1c(-c2ccccc2)cc2ccccn12 [Example 307, 2-Oxo-2-(2-phenyl-indolizin-3-yl)-N-(4-piperidin-1-yl-phenyl)-acetamide] |  | 0.05 (≈ 0.118 µM) | 0.001 (≈ 0.00236 µM) | 0.008 (≈ 0.0189 µM) |  |  |  |  |  |  |  |  | 0.008 (≈ 0.0189 µM) | 0.008 (≈ 0.0189 µM) | 0.002 (≈ 0.00472 µM) |
| CCOC(=O)C(C)(C)NC(=O)C(=O)c1c(-c2ccccc2)cc2ccccn12 [Example 248, 2-Methyl-2-[2-oxo-2-(2-phenyl-indolizin-3-yl)-acetylamino]-propionic acid ethyl ester] | > 50 | 12.5 (≈ 33 µM) | 6.25 (≈ 16.5 µM) | 12.5 (≈ 33 µM) | 0.4 (≈ 1.06 µM) | 6.25 (≈ 16.5 µM) |  |  |  |  |  |  |  |  |  |
| O=C(Nc1cccc(C(F)(F)F)c1)C(=O)c1c(-c2ccccc2)cc2ccccn12 [Example 306, 2-Oxo-2-(2-phenyl-indolizin-3-yl)-N-(3-trifluoromethyl-phenyl)-acetamide] |  | 0.062 (≈ 0.152 µM) | 0.002 (≈ 0.0049 µM) | 0.12 (≈ 0.294 µM) |  |  |  |  |  |  |  |  | 0.008 (≈ 0.0196 µM) | 0.015 (≈ 0.0367 µM) | 0.004 (≈ 0.00979 µM) |
| COc1ccc(NC(=O)C(=O)c2c(-c3cccs3)cc3ccccn23)cn1 [Example 167, N-(6-Methoxy-pyridin-3-yl)-2-oxo-2-(2-thiophen-2-yl-indolizin-3-yl)-acetamide] | 0.062 (≈ 0.164 µM) | 1.6 (≈ 4.24 µM) | 0.062 (≈ 0.164 µM) | 1.6 (≈ 4.24 µM) | 0.5 (≈ 1.32 µM) | 0.25 (≈ 0.662 µM) |  |  |  |  |  |  |  |  |  |
| O=C(Nc1ccc(Nc2nccs2)cc1)C(=O)c1c(-c2ccccc2)cc2ccccn12 [Example 285, 2-Oxo-2-(2-phenyl-indolizin-3-yl)-N-[4-(thiazol-2-ylamino)-phenyl]-acetamide] | 0.05 (≈ 0.114 µM) | 0.8 (≈ 1.82 µM) | 0.03 (≈ 0.0684 µM) | 0.4 (≈ 0.912 µM) | 0.05 (≈ 0.114 µM) | 0.05 (≈ 0.114 µM) |  |  |  |  |  |  |  |  |  |
| O=C(Nc1ccccc1)C(=O)c1c(-c2ccccc2)cc2ccccn12 [Example 136, 2-Oxo-N-phenyl-2-(2-phenyl-indolizin-3-yl)-acetamide] | 0.031 (≈ 0.0911 µM) | 0.12 (≈ 0.353 µM) | 0.004 (≈ 0.0118 µM) | 0.25 (≈ 0.734 µM) | 0.031 (≈ 0.0911 µM) | 0.031 (≈ 0.0911 µM) |  |  |  |  |  |  |  |  |  |
| O=C(Nc1ccc(N2CCOCC2)cc1)C(=O)c1c(-c2ccccc2)cc2ccccn12 [Example 251, N-(4-Morpholin-4-yl-phenyl)-2-oxo-2-(2-phenyl-indolizin-3-yl)-acetamide] | 0.062 (≈ 0.146 µM) | 0.12 (≈ 0.282 µM) | 0.015 (≈ 0.0353 µM) | 0.12 (≈ 0.282 µM) | 0.062 (≈ 0.146 µM) | 0.031 (≈ 0.0729 µM) |  |  |  |  |  |  |  |  |  |
| O=C(Nc1ccc(C(F)(F)F)cc1)C(=O)c1c(-c2ccccc2)cc2ccccn12 [Example 304, 2-Oxo-2-(2-phenyl-indolizin-3-yl)-N-(4-trifluoromethyl-phenyl)-acetamide] |  | 0.25 (≈ 0.612 µM) | 0.015 (≈ 0.0367 µM) | 0.25 (≈ 0.612 µM) |  |  |  |  |  |  |  |  | 0.031 (≈ 0.0759 µM) | 0.015 (≈ 0.0367 µM) | 0.015 (≈ 0.0367 µM) |
| O=C(O)COc1cccc(NC(=O)C(=O)c2c(-c3ccccc3)cc3ccccn23)c1 [Example 294, {3-[2-Oxo-2-(2-phenyl-indolizin-3-yl)-acetylamino]-phenoxy}-acetic acid] | 25 (≈ 60.3 µM) | > 50 | 25 (≈ 60.3 µM) | 25 (≈ 60.3 µM) | 50 (≈ 121 µM) | 50 (≈ 121 µM) |  |  |  |  |  |  |  |  |  |
| CC(C)c1ccc(NC(=O)C(=O)c2c(-c3ccccc3)cc3ccccn23)cc1 [Example 252, N-(4-Isopropyl-phenyl)-2-oxo-2-(2-phenyl-indolizin-3-yl)-acetamide] | 0.015 (≈ 0.0392 µM) | 0.062 (≈ 0.162 µM) | 0.002 (≈ 0.00523 µM) | 0.008 (≈ 0.0209 µM) | 0.004 (≈ 0.0105 µM) | 0.008 (≈ 0.0209 µM) |  |  |  |  |  |  |  |  |  |
| CCCCOC(=O)c1ccc(NC(=O)C(=O)c2c(-c3ccccc3)cc3ccccn23)cc1 [Example 144, 4-[2-Oxo-2-(2-phenyl-indolizin-3-yl)-acetylamino]-benzoic acid butyl ester] | 0.015 (≈ 0.0341 µM) | 0.062 (≈ 0.141 µM) | 0.008 (≈ 0.0182 µM) | 0.06 (≈ 0.136 µM) | 0.008 (≈ 0.0182 µM) | 0.062 (≈ 0.141 µM) |  |  |  |  |  |  |  |  |  |
| C=CCc1c(F)ccc(NC(=O)C(=O)c2c(-c3ccccc3)cc3ccccn23)c1OC [Example 254, N-(3-Allyl-4-fluoro-2-methoxy-phenyl)-2-oxo-2-(2-phenyl-indolizin-3-yl)-acetamide] | 0.4 (≈ 0.934 µM) | 0.8 (≈ 1.87 µM) | 0.2 (≈ 0.467 µM) | 1.6 (≈ 3.73 µM) | 0.4 (≈ 0.934 µM) | 0.1 (≈ 0.233 µM) |  |  |  |  |  |  |  |  |  |
| O=C(Nc1ccc(-c2nccs2)cc1)C(=O)c1c(-c2ccccc2)cc2ccccn12 [Example 293, 2-Oxo-2-(2-phenyl-indolizin-3-yl)-N-(4-thiazol-2-yl-phenyl)-acetamide] | 0.05 (≈ 0.118 µM) | 0.4 (≈ 0.945 µM) | 0.004 (≈ 0.00945 µM) | 0.1 (≈ 0.236 µM) | 0.008 (≈ 0.0189 µM) | 0.015 (≈ 0.0354 µM) |  |  |  |  |  |  |  |  |  |
| CCCN(CCC)c1ccc(NC(=O)C(=O)c2c(-c3ccccc3)cc3ccccn23)cn1 [Example 289, N-(6-Dipropylamino-pyridin-3-yl)-2-oxo-2-(2-phenyl-indolizin-3-yl)-acetamide] | 0.004 (≈ 0.00908 µM) | 0.05 (≈ 0.113 µM) | 0.008 (≈ 0.0182 µM) | 0.05 (≈ 0.113 µM) | 0.004 (≈ 0.00908 µM) | 0.008 (≈ 0.0182 µM) |  |  |  |  |  |  |  |  |  |
| CN(C)Cc1ccc(NC(=O)C(=O)c2c(-c3ccccc3)cc3ccccn23)cc1 [Example 278, N-(4-Dimethylaminomethyl-phenyl)-2-oxo-2-(2-phenyl-indolizin-3-yl)-acetamide] | 6.25 (≈ 15.7 µM) | 12.5 (≈ 31.4 µM) | 12.5 (≈ 31.4 µM) | 25 (≈ 62.9 µM) | 25 (≈ 62.9 µM) | 6.25 (≈ 15.7 µM) |  |  |  |  |  |  |  |  |  |
